Assay: Distribution and quantification of propranolol in whole-body mouse sections by MALDI mass spectrometry imaging
Assay type: in vivo
Conditions: 7.5 mg/kg intravenous, 20 minutes post-injection, sagittal whole-body section, TEC-normalized
Method: Male Swiss mice weighing 25-40 g (Charles River, France) were used.
The animals were sacrificed by CO2 asphyxiation at 20 minutes post-injection.
The samples (control and dosed tissue) were sectioned into 20 μm-thick layers using a CM1510S cryostat (Leica Microsystems, Nanterre, France) cooled at −26° C. The sections were then deposited on conductive ITO (indium tin oxide) slides (Bruker Daltonics, Bremen, Germany).
This matrix was prepared at a concentration of 40 mg/ml in methanol/0.1% TFA (1:1, v/v). The matrix solution was deposited using the SunCollect spraying system (SunChrome, Germany).
This range of dilutions extends from 10 pmol/μl to 0.02 pmol/μl and includes seven points.
The images were obtained using an AutoFlex Speed MALDI-TOF mass spectrometer (Bruker Daltonics, Bremen, Germany) equipped with a Smartbeam laser. The data was generated in positive reflectron mode. A total of 700 spectra were obtained for each spot with a 1000 Hz laser frequency and a 300×300 μm′ image spatial resolution on a mass range of 100 Da to 1000 Da. The FlexImaging version 2.1 software was used to reconstruct the images.

- total quantity of the target analyte in the brain: about 5 ng
SMILES: CC(C)NCC(O)COc1cccc2ccccc12 (stereo not shown) [propranolol, Propranolol]

Source: patent US9182409B2, “Mass spectrometry imaging method for detecting and quantifying a target molecule in a tissue sample” (priority 2011, dated 2015)
